In patent publication US20240238317A1, “METHODS FOR REDUCING INTRAOCULAR PRESSURE” (UNIVERSITY OF MISSISSIPPI, priority 2021, published 2024):
Where “and” joins values, the source holds several entries; their conditions need not be identical. Equal entries are not always repeated.

Key:
IOP = details: topical application; cited from earlier work
[1] = system: IOP in test eye of DB rabbits; test: Single treatment multiple day application study: IOP lowering after topical administration of one formulation (QD, 5 days); type: in vivo, pigmented (Dutch Belted; DB) rabbits; design: Test eye IOP: unit not given here; details: for Drop in IOP: test eye
From the text: The rabbits were split into three groups.
The IOP profile following multi-day (QD, 5 days) exposure to a single formulation, in pigmented DB rabbits, is presented in FIGS. 1-26.

[2] = system: IOP in test eye of DB rabbits; test: Combination dose multiple day application study: IOP lowering after topical co-administration of two formulations (second 15 minutes after first)
[3] = Average of days 1, 3, 5, 30 min
[4] = Average of days 1, 3, 5, 60 min
[5] = Average of days 1, 3, 5, 90 min
[6] = Average of days 1, 3, 5, 120 min
[7] = Average of days 1, 3, 5, 150 min
[8] = Average of days 1, 3, 5, 180 min
[9] = Average of days 1, 3, 5, 240 min
[10] = Average of days 1, 3, 5, 300 min
[11] = Average of days 1, 3, 5, 360 min
[12] = Average of days 1, 3, 5, 420 min
[13] = Average of days 1, 3, 5, 480 min
[14] = Average of days 1, 3, 5, 540 min
[15] = Average of days 1, 3, 5, 1440 min

CCCCCc1cc(O)c2c(c1)OC(C)(C)[C@@H]1CCC(C)=C[C@@H]21 [THC, Delta-9-tetrahydrocannabinol]
effect on IOP (IOP): no effect on IOP

CC(C)OC(=O)CCC/C=C\C[C@@H]1[C@@H](CC[C@@H](O)CCc2ccccc2)[C@H](O)C[C@@H]1O [Latanoprost]
Test eye IOP ([1]; Average of days 1, 3, 5, 0 min): 24.6
Test eye IOP [1, 3]: 20.1
Test eye IOP [1, 4]: 19.6
Test eye IOP [1, 5]: 19.5
Test eye IOP [1, 6]: 19.7
Test eye IOP [1, 7]: 19.6
Test eye IOP [1, 8]: 20.0
Test eye IOP [1, 9]: 19.5
Test eye IOP [1, 10]: 19.7
Test eye IOP [1, 11]: 19.9
Test eye IOP [1, 12]: 21.0
Test eye IOP [1, 13]: 23.9
Test eye IOP [1, 14]: 24.8
Test eye IOP [1, 15]: 24.4
Drop in IOP ([1]; Average of days 1, 3, 5, 0 min): 0.0%
Drop in IOP [1, 3]: −18.3%
Drop in IOP [1, 4]: −20.3%
Drop in IOP [1, 5]: −20.5%
Drop in IOP [1, 6]: −19.8%
Drop in IOP [1, 7]: −20.5%
Drop in IOP [1, 8]: −18.7%
Drop in IOP [1, 9]: −20.6%
Drop in IOP [1, 10]: −21.7%
Drop in IOP [1, 11]: −19.1%
Drop in IOP [1, 12]: −14.5%
Drop in IOP [1, 13]: −2.9%
Drop in IOP [1, 14]: 0.7%
Drop in IOP [1, 15]: −2.2%
Test eye IOP ([1]; Day 1, 0 min): 25.2
Test eye IOP ([1]; Day 1, 30 min): 20.0
Test eye IOP ([1]; Day 1, 60 min): 19.6
Test eye IOP ([1]; Day 1, 90 min): 19.2
Test eye IOP ([1]; Day 1, 120 min): 19.8
Test eye IOP ([1]; Day 1, 150 min): 19.4
Test eye IOP ([1]; Day 1, 180 min): 20.2
Test eye IOP ([1]; Day 1, 240 min): 19.7
Test eye IOP ([1]; Day 1, 300 min): 19.7
Test eye IOP ([1]; Day 1, 360 min): 19.7
Test eye IOP ([1]; Day 1, 420 min): 20.9
Test eye IOP ([1]; Day 1, 480 min): 23.8
Test eye IOP ([1]; Day 1, 540 min): 25.2
Test eye IOP ([1]; Day 1, 1440 min): 24.4
Drop in IOP ([1]; Day 1, 0 min): 0.0%
Drop in IOP ([1]; Day 1, 30 min): −20.5%
Drop in IOP ([1]; Day 1, 60 min): −21.9%
Drop in IOP ([1]; Day 1, 90 min): −23.7%
Drop in IOP ([1]; Day 1, 120 min): −21.3%
Drop in IOP ([1]; Day 1, 150 min): −22.9%
Drop in IOP ([1]; Day 1, 180 min): −19.7%
Drop in IOP ([1]; Day 1, 240 min): −21.8%
Drop in IOP ([1]; Day 1, 300 min): −21.7%
Drop in IOP ([1]; Day 1, 360 min): −21.7%
Drop in IOP ([1]; Day 1, 420 min): −16.8%
Drop in IOP ([1]; Day 1, 480 min): −5.4%
Drop in IOP ([1]; Day 1, 540 min): 0.3%
Drop in IOP ([1]; Day 1, 1440 min): −3.0%
Test eye IOP ([1]; Day 3, 0 min): 24.6
Test eye IOP ([1]; Day 3, 30 min): 19.8
Test eye IOP ([1]; Day 3, 60 min): 19.5
Test eye IOP ([1]; Day 3, 90 min): 19.8
Test eye IOP ([1]; Day 3, 120 min): 19.6
Test eye IOP ([1]; Day 3, 150 min): 19.6
Test eye IOP ([1]; Day 3, 180 min): 20.0
Test eye IOP ([1]; Day 3, 240 min): 19.6
Test eye IOP ([1]; Day 3, 360 min): 19.6
Test eye IOP ([1]; Day 3, 420 min): 21.0
Test eye IOP ([1]; Day 3, 480 min): 23.7
Test eye IOP ([1]; Day 3, 540 min): 24.5
Test eye IOP ([1]; Day 3, 1440 min): 24.2
Drop in IOP ([1]; Day 3, 0 min): 0.0%
Drop in IOP ([1]; Day 3, 30 min): −19.4%
Drop in IOP ([1]; Day 3, 60 min): −20.7%
Drop in IOP ([1]; Day 3, 90 min): −19.6%
Drop in IOP ([1]; Day 3, 120 min): −20.3%
Drop in IOP ([1]; Day 3, 150 min): −20.3%
Drop in IOP ([1]; Day 3, 180 min): −18.7%
Drop in IOP ([1]; Day 3, 240 min): −20.5%
Drop in IOP ([1]; Day 3, 360 min): −20.3%
Drop in IOP ([1]; Day 3, 420 min): −14.7%
Drop in IOP ([1]; Day 3, 480 min): −3.6%
Drop in IOP ([1]; Day 3, 540 min): −0.4%
Drop in IOP ([1]; Day 3, 1440 min): −3.6%
Test eye IOP ([1]; Day 5, 0 min): 24.1
Test eye IOP ([1]; Day 5, 30 min): 20.4
Test eye IOP ([1]; Day 5, 60 min): 19.7
Test eye IOP ([1]; Day 5, 90 min): 19.7
Test eye IOP ([1]; Day 5, 120 min): 19.8
Test eye IOP ([1]; Day 5, 150 min): 19.7
Test eye IOP ([1]; Day 5, 180 min): 19.8
Test eye IOP ([1]; Day 5, 240 min): 19.3
Test eye IOP ([1]; Day 5, 360 min): 20.3
Test eye IOP ([1]; Day 5, 420 min): 21.2
Test eye IOP ([1]; Day 5, 480 min): 24.1
Test eye IOP ([1]; Day 5, 540 min): 24.6
Test eye IOP ([1]; Day 5, 1440 min): 24.7
Drop in IOP ([1]; Day 5, 0 min): 0.0%
Drop in IOP ([1]; Day 5, 30 min): −15.2%
Drop in IOP ([1]; Day 5, 60 min): −18.2%
Drop in IOP ([1]; Day 5, 90 min): −18.2%
Drop in IOP ([1]; Day 5, 120 min): −17.8%
Drop in IOP ([1]; Day 5, 150 min): −18.2%
Drop in IOP ([1]; Day 5, 180 min): −17.5%
Drop in IOP ([1]; Day 5, 240 min): −19.6%
Drop in IOP ([1]; Day 5, 360 min): −15.4%
Drop in IOP ([1]; Day 5, 420 min): −12.0%
Drop in IOP ([1]; Day 5, 480 min): 0.3%
Drop in IOP ([1]; Day 5, 540 min): 2.1%
Drop in IOP ([1]; Day 5, 1440 min): 0.0%
IOP returned to baseline (time) ([1]; single formulation): ≤ 480 min
average max drop in IOP ([1]; single formulation, QD, 5 days): about 21.3+2.1%
Max IOP drop (%) ([1]; single formulation, Day 1): −23.7%
Max IOP drop (mmHg) ([1]; single formulation, Day 1): 6.0 mmHg and 6 mmHg
Time of max IOP drop (%) ([1]; single formulation, Day 1): 90 min
Time of max IOP drop (mmHg) ([1]; single formulation, Day 1): 90 min
Max IOP drop (%) ([1]; single formulation, Day 3): −20.7%
Max IOP drop (mmHg) ([1]; single formulation, Day 3): 5.1 mmHg
Time of max IOP drop (%) ([1]; single formulation, Day 3): 60 min
Time of max IOP drop (mmHg) ([1]; single formulation, Day 3): 60 min
Max IOP drop (%) ([1]; single formulation, Day 5): −19.6%
Max IOP drop (mmHg) ([1]; single formulation, Day 5): 4.7 mmHg
Time of max IOP drop (%) ([1]; single formulation, Day 5): 240 min
Time of max IOP drop (mmHg) ([1]; single formulation, Day 5): 240 min
time to max drop in IOP ([1]; single formulation, day 1): 60 min
time to max drop in IOP ([1]; single formulation, day 3): 90 min
time to max drop in IOP ([1]; single formulation, day 5): 240 min
maintained average drop in IOP ([1]; single formulation, from 30 to 420 mins): 19.4 ± 1.9%
comparison of IOP lowering of combinations with single treatments [2]: decreased the efficacy of both THC-VHS-NEC and Rhopressa® when combined
